What was measured:
[1] = molecular target: T1, VSGsur (Variant Surface Glycoprotein VSGsur) (Trypanosoma brucei, UniProt A0A291L8F4); test: crystal structure; format: binding
T1 sequence (A0A291L8F4 30-408): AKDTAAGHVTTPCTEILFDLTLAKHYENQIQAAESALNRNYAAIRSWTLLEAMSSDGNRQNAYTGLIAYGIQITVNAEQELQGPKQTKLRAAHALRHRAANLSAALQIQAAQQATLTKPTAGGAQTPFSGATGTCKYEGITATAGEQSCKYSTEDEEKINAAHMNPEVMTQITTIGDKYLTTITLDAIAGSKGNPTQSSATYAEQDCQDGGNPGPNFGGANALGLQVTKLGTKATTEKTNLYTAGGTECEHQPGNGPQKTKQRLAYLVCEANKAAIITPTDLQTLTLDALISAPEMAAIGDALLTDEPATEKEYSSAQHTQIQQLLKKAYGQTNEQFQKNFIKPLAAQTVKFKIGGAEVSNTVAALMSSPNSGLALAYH

[2] = molecular target: T2, VSGsur (Variant Surface Glycoprotein VSGsur) (Trypanosoma brucei, UniProt A0A291L8F4); test: ITC and […] Å co-crystal structure; format: binding
T2 sequence (A0A291L8F4 30-475): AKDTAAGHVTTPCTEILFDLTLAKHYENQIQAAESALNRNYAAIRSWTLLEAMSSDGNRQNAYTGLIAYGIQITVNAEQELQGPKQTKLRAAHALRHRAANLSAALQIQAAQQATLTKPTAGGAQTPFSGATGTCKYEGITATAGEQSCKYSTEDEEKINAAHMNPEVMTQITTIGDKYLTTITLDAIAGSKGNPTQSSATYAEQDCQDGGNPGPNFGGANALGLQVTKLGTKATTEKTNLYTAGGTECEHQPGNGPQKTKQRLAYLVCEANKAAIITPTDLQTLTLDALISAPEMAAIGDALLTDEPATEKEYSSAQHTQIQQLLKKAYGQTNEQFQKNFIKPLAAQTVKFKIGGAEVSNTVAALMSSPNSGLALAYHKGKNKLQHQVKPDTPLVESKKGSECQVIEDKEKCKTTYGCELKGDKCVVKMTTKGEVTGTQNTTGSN

[3] = molecular target: Variant Surface Glycoprotein VSG13, N-terminal domain (T. brucei brucei Lister 427); test: crystal structure
[4] = molecular target: Variant Surface Glycoprotein VSGsur, N-terminal domain (T. brucei rhodesiense); test: crystal structure

Nc1c(I)c(C(=O)O)c(I)c(C(=O)O)c1I [I3C, 5-amino-2,4,6-triiodoisophthalic acid]
crystal structure (50 mM overnight soak, phasing compound) [1]: occupies the same position as the suramin benzene groups, stacking similarly with H122

Cc1ccc(C(=O)Nc2ccc(S(=O)(=O)O)c3cc(S(=O)(=O)O)cc(S(=O)(=O)O)c23)cc1NC(=O)c1cccc(NC(=O)Nc2cccc(C(=O)Nc3cc(C(=O)Nc4ccc(S(=O)(=O)O)c5cc(S(=O)(=O)O)cc(S(=O)(=O)O)c45)ccc3C)c2)c1 [suramin]
Kd [2]: 234 ± 28 nM

Variant Surface Glycoprotein VSG13, N-terminal domain (domain or fragment)
stoichiometry N [3]: 2

Variant Surface Glycoprotein VSGsur, N-terminal domain (domain or fragment)
stoichiometry N [4]: 2

— article PMC7116837 (Nature microbiology, 2021)
